{"source": "patent US12611400B2", "about": "“Solid lipid nano-composition containing berberine and cinnamonaldehyde effective in treating diabetes, dyslipidemia, and method of preparing the same” (priority 2020, dated 2026)", "system": "white mouse models of P-407-induced dyslipidemia", "assay": "Dyslipidemia regulation effects in P-407-induced endogenous dyslipidemia model in white mice", "assay_type": "in vivo", "settings": "oral 100 mg/kg, 7 days; for Total cholesterol: Reduction in comparison with the model batch: 100 mg/kg", "description": "The test on white mice was divided into 5 batches, each batch having 10 animals. The batches were subjected to injection and oral administration as follows: • Batch 1 (biological control): 0.9% saline was intraperitoneally injected at a volume of 0.1 mL/10 g mouse body weight and 0.2 mL/10 g distilled water was orally administered. • Batch 2 (model): 2% P-407 solution was intraperitoneally injected at 200 mg/kg (0.1 mL/10 g), and 0.2 mL/10 g distilled water was orally administered. • Batch 3 (positive control): 2% P-407 solution was intraperitoneally injected at 200 mg/kg (0.1 mL/10 g), and 100 mg/kg (0.2 mL/10 g) atorvastatin was orally administered. • Batch 4: 2% P-407 solution was intraperitoneally injected at 200 mg/kg (0.1 mL/10 g), the composition was orally administered at 0.24 g/kg/day (equivalent to the clinical intended dose), at 0.2 mL/10 g. • Batch 5: 2% P-407 solution was intraperitoneally injected at 200 mg/kg dose (0.1 mL/10 g), the composition was orally administered at dosage 0.72 g/kg/day (3 times as much as the clinical intended dose), at 0.2 mL/10 g.\nWhite mice were subjected to oral administration of distilled water and the sample drug in 7 continuous days before the intraperitoneal injection with P-407 solution. After P-407 injection, the mice were left to starve completely but were free to drink water. After 24 hours from the P-407 injection, all of the mice received carotid arterial blood sampling for TG, TC, and HDL-C quantitative testing. Non-HDL-C levels were calculated based on the following formula: Non-HDL-C=TC−HDL-C (mmol/L) Test Results Total Cholesterol Levels", "key": {"[1]": {"settings": "white mouse blood, 24 h after P-407 200 mg/kg i.p., n = 10"}}, "data": [{"smiles": "CC(C)c1c(C(=O)Nc2ccccc2)c(-c2ccccc2)c(-c2ccc(F)cc2)n1CC[C@@H](O)C[C@@H](O)CC(=O)O", "note": "[Atorvastatin, atorvastatin]", "values": [{"measurement": "Non-HDL-cholesterol level", "setting": "Non-HDL-C=TC−HDL-C, white mouse blood, 24 h after P-407, n = 10", "value": "6.08 ± 0.88", "unit": "mmol/L"}, {"measurement": "Non-HDL-cholesterol: Reduction in comparison with the model", "setting": "P-407 model", "value": 12.1, "unit": "%"}, {"measurement": "Total cholesterol: Reduction in comparison with the model batch", "setting": "P-407 model", "value": 5.7, "unit": "%"}, {"measurement": "HDL-C level change versus model batch (↑ increase)", "setting": "P-407 model, given with ↑", "value": "(↑ 19.1%)"}, {"measurement": "Total cholesterol: Reduction in comparison with the model batch", "setting": "P-407 model, listed as atorvastatin", "value": 5.7, "unit": "%"}, {"measurement": "Triglyceride: Reduction in comparison with the model batch", "setting": "P-407 model, negative = increase", "value": "−46.3", "unit": "%"}, {"measurement": "HDL-C level", "setting": "[1]", "value": "2.12 ± 0.41", "unit": "mmol/L"}, {"measurement": "Total cholesterol level", "setting": "[1]", "value": "8.20 ± 1.01", "unit": "mmol/L"}, {"measurement": "Triglyceride level", "setting": "[1]", "value": "9.77 ± 1.05", "unit": "mmol/L"}]}]}
